Test results reported in patent US9149475B2, “Protein kinase C inhibitors and uses thereof” (Rigel Pharmaceuticals, Inc., priority 2009, dated 2015).

Test system: Human primary T cells
Assay: IL-2 ELISA, human primary T cell, anti-CD3+CD28+ (whole cell assay)
Format: cell-based
Settings: Homo sapiens, T-cell, 24 h, human primary T cells stimulated with anti-CD3 + anti-CD28, 24 hours
Procedure, shortened: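 PBMC-derived T cells, pre-expanded on αCD3/αCD28 with IL-2 and then washed free of IL-2, were preincubated with compound for 1 hr at 37° C (100,000 cells/well). They were then stimulated on 1 μg/ml αCD3 plus 5 μg/ml αCD28 for 24 h, and supernatant IL-2 was measured by ELISA. The counter-assay used 0.5 ng/ml PMA plus 0.1 μM ionomycin instead.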

| SMILES | IC50 |
| --- | --- |
| CC(C)Oc1ncc(Nc2ncc(C#N)c(NC3CC(C)(C)N(C)C(C)(C)C3)n2)cc1-c1nnnn1C [Compound I-129, 2-(6-isopropoxy-5-(1-methyl-1H-tetrazol-5-yl)pyridin-3-ylamino)-4-(1,2,2,6,6-pentamethylpiperidin-4-ylamino)pyrimidine-5-carbonitrile] | 500 to 1000 nM |
| CN1C(C)(C)CC(Nc2nc(Nc3ccc(OC4COC4)c(-c4nnnn4C)c3)ncc2F)CC1(C)C [III-127, 5-fluoro-N2-(3-(1-methyl-1H-tetrazol-5-yl)-4-(oxetan-3-yloxy)phenyl)-N4-(1,2,2,6,6-pentamethylpiperidin-4-yl)pyrimidine-2,4-diamine] | < 250 nM |
| CC1(C)CC(Nc2nc(Nc3ccc(OC4CCN(CC(F)(F)F)CC4)c(OC(F)F)c3)ncc2F)CC(C)(C)N1 [Compound I-144, N2-(4-(1-(2,2,2-trifluoroethyl)piperidin-4-yloxy)-3-(difluoromethoxy)phenyl)-5-fluoro-N4-(2,2,6,6-tetramethylpiperidin-4-yl)pyrimidine-2,4-diamine] | 500 to 1000 nM |
| CN1C(C)(C)CC(Nc2nc(Nc3cc(OC4COC4)cc(-c4nnnn4C)c3)ncc2F)CC1(C)C [III-146, 5-fluoro-N2-(3-(1-methyl-1H-tetrazol-5-yl)-5-(oxetan-3-yloxy)phenyl)-N4-(1,2,2,6,6-pentamethylpiperidin-4-yl)pyrimidine-2,4-diamine] | 250 to 500 nM |
| CC1(C)CC(Nc2nc(Nc3cc(F)cc(OCCn4ccnn4)c3)ncc2F)CC(C)(C)N1 [Compound I-8, N2-(3-(2-(1H-1,2,3-triazol-1-yl)ethoxy)-5-fluorophenyl)-5-fluoro-N4-(2,2,6,6-tetramethylpiperidin-4-yl)pyrimidine-2,4-diamine] | > 1000 nM |
| CC1(C)CC(Nc2nc(Nc3ccc(OC4CCN(CCOCc5ccccc5)CC4)c(F)c3)ncc2F)CC(C)(C)N1 [III-53, N2-(4-(1-(2-(benzyloxy)ethyl)piperidin-4-yloxy)-3-fluorophenyl)-5-fluoro-N4-(2,2,6,6-tetramethylpiperidin-4-yl)pyrimidine-2,4-diamine] | 500 to 1000 nM |
| CC1(C)CC(Nc2nc(Nc3cc(F)c(OC4CCCN(S(C)(=O)=O)CC4)c(F)c3)ncc2F)CC(C)(C)N1 (centres unmarked) [III-80, N2-(3,5-difluoro-4-(1-(methylsulfonyl)azepan-4-yloxy)phenyl)-5-fluoro-N4-(2,2,6,6-tetramethylpiperidin-4-yl)pyrimidine-2,4-diamine] | > 1000 nM |
| CN1C(C)(C)CC(Nc2nc(Nc3ccc4c(c3)OCC(C(=O)N3CCOCC3)O4)ncc2F)CC1(C)C (centres unmarked) [II-2, (6-(4-(1,2,2,6,6-pentamethylpiperidin-4-ylamino)-5-fluoropyrimidin-2-ylamino)-2,3-dihydrobenzo[b][1,4]dioxin-2-yl)(morpholino)methanone] | > 1000 nM |
| CC(C)Oc1ncc(Nc2ncc(C#N)c(NC3CC(C)(C)NC(C)(C)C3)n2)cc1-c1nnnn1C(C)C [Compound I-136, 2-(6-isopropoxy-5-(1-isopropyl-1H-tetrazol-5-yl)pyridin-3-ylamino)-4-(2,2,6,6-tetramethylpiperidin-4-ylamino)pyrimidine-5-carbonitrile] | > 1000 nM |
| CC1(C)CC(Nc2nc(Nc3cc(F)c(OC4CCOCC4)c(F)c3)ncc2F)CC(C)(C)N1 [III-26, N2-(3,5-difluoro-4-(tetrahydro-2H-pyran-4-yloxy)phenyl)-5-fluoro-N4-(2,2,6,6-tetramethylpiperidin-4-yl)pyrimidine-2,4-diamine] | 500 to 1000 nM |
| Cc1ccc(Nc2ncc(F)c(NC3CC(C)(C)NC(C)(C)C3)n2)cc1-c1nnnn1C [III-63, 5-fluoro-N2-(4-methyl-3-(1-methyl-1H-tetrazol-5-yl)phenyl)-N4-(2,2,6,6-tetramethylpiperidin-4-yl)pyrimidine-2,4-diamine] | 250 to 500 nM |
| CC(C)Nc1cc(Nc2ncc(F)c(NC3CC(C)(C)N(C)C(C)(C)C3)n2)ccc1OC(C)C [III-62, 5-fluoro-N2-(4-isopropoxy-3-(isopropylamino)phenyl)-N4-(1,2,2,6,6-pentamethylpiperidin-4-yl)pyrimidine-2,4-diamine] | > 1000 nM |
| Cc1nnnn1-c1cc(Nc2ncc(F)c(NC3CC(C)(C)NC(C)(C)C3)n2)ccc1F [Compound I-10, 5-fluoro-N2-(4-fluoro-3-(5-methyl-1H-tetrazol-1-yl)phenyl)-N4-(2,2,6,6-tetramethylpiperidin-4-yl)pyrimidine-2,4-diamine] | 250 to 500 nM |
| Cc1ccn(-c2cccc(Nc3ncc(F)c(NC4CC(C)(C)NC(C)(C)C4)n3)c2)n1 [Compound I-7, 5-fluoro-N2-(3-(3-methyl-1H-pyrazol-1-yl)phenyl)-N4-(2,2,6,6-tetramethylpiperidin-4-yl)pyrimidine-2,4-diamine] | > 1000 nM |

The next lines start with the values.

| IC50 | SMILES |
| --- | --- |
| 500 to 1000 nM | CN1C(C)(C)CC(Nc2nc(Nc3ccc(Oc4cccnc4)c(C(F)(F)F)c3)ncc2F)CC1(C)C [Compound I-61, 5-fluoro-N2-(3-(trifluoromethyl)-4-(pyridin-3-yloxy)phenyl)-N4-(1,2,2,6,6-pentamethylpiperidin-4-yl)pyrimidine-2,4-diamine] |
| > 1000 nM | CC(=O)N1C(C)(C)CC(Nc2nc(Nc3ccc(OC4CCN(C(C)C)CC4)c(OC(F)F)c3)ncc2F)CC1(C)C [III-4, 1-(4-(2-(3-(Difluoromethoxy)-4-(1-isopropylpiperidin-4-yloxy)phenylamino)-5-fluoropyrimidin-4-ylamino)-2,2,6,6-tetramethylpiperidin-1-yl)ethanone] |
| 500 to 1000 nM | CC(C)N1CC(Oc2ccc(Nc3ncc(F)c(NC4CC(C)(C)NC(C)(C)C4)n3)cc2OC(F)F)C1 [III-39, N2-(3-(Difluoromethoxy)-4-(1-isopropylazetidin-3-yloxy)phenyl)-5-fluoro-N4-(2,2,6,6-tetramethylpiperidin-4-yl)pyrimidine-2,4-diamine] |
| 500 to 1000 nM | CC1(C)CC(Nc2nc(Nc3ccc(OC4CCN(CCO)CC4)c(OC(F)F)c3)ncc2F)CC(C)(C)N1 [III-38, 2-(4-(2-(Difluoromethoxy)-4-(5-fluoro-4-(2,2,6,6-tetramethylpiperidin-4-ylamino)pyrimidin-2-ylamino)phenoxy)piperidin-1-yl)ethanol] |
| > 1000 nM | CC1(C)CC(Nc2nc(Nc3ccc(OCCn4cncn4)c(OC(F)F)c3)ncc2F)CC(C)(C)N1 [Compound I-25, N2-(4-(2-(1H-1,2,4-triazol-1-yl)ethoxy)-3-(difluoromethoxy)phenyl)-5-fluoro-N4-(2,2,6,6-tetramethylpiperidin-4-yl)pyrimidine-2,4-diamine] |
| > 1000 nM | CC1(C)CC(Nc2nc(Nc3cnc(OCCN4CCCC4)c(OC(F)F)c3)ncc2F)CC(C)(C)N1 [Compound I-143, N2-(5-(difluoromethoxy)-6-(2-(pyrrolidin-1-yl)ethoxy)pyridin-3-yl)-5-fluoro-N4-(2,2,6,6-tetramethylpiperidin-4-yl)pyrimidine-2,4-diamine] |
| 250 to 500 nM | CCOc1ncc(Nc2ncc(F)c(NC3CC(C)(C)NC(C)(C)C3)n2)cc1OC(F)F [Compound I-118, N2-(5-(difluoromethoxy)-6-ethoxypyridin-3-yl)-5-fluoro-N4-(2,2,6,6-tetramethylpiperidin-4-yl)pyrimidine-2,4-diamine] |
| 500 to 1000 nM | CC1(C)CC(Nc2nc(Nc3cccc(-c4nnnn4C4CC4)c3)ncc2F)CC(C)(C)N1 [III-73, N2-(3-(1-cyclopropyl-1H-tetrazol-5-yl)phenyl)-5-fluoro-N4-(2,2,6,6-tetramethylpiperidin-4-yl)pyrimidine-2,4-diamine] |
| > 1000 nM | CN1C(C)(C)CC(Nc2nc(Nc3ccc4c(c3)OCC(C(=O)N3CCCCC3)O4)ncc2F)CC1(C)C (centres unmarked) [II-1, (6-(4-(1,2,2,6,6-pentamethylpiperidin-4-ylamino)-5-fluoropyrimidin-2-ylamino)-2,3-dihydrobenzo[b][1,4]dioxin-2-yl)(piperidin-1-yl)methanone] |
| 500 to 1000 nM | CC1(C)CC(Nc2nc(Nc3ccc(OCCN4CCCC4)c(OC(F)F)c3)ncc2F)CC(C)(C)N1 [Compound I-60, N2-(4-(2-(pyrrolidin-1-yl)ethoxy)-3-(difluoromethoxy)phenyl)-5-fluoro-N4-(2,2,6,6-tetramethylpiperidin-4-yl)pyrimidine-2,4-diamine] |
| 250 to 500 nM | CN1C(C)(C)CC(Nc2nc(Nc3ccc(OCCN4CCOCC4)c(C(F)(F)F)c3)ncc2F)CC1(C)C [Compound I-119, N2-(4-(2-morpholinoethoxy)-3-(trifluoromethyl)phenyl)-5-fluoro-N4-(1,2,2,6,6-pentamethylpiperidin-4-yl)pyrimidine-2,4-diamine] |
| < 250 nM | CC(C)N1CC[C@H](Oc2ccc(Nc3ncc(F)c(NC4CC(C)(C)N(C)C(C)(C)C4)n3)cc2OC(F)F)C1 [Compound I-149, N2-(4-((S)-1-isopropylpyrrolidin-3-yloxy)-3-(difluoromethoxy)phenyl)-5-fluoro-N4-(1,2,2,6,6-pentamethylpiperidin-4-yl)pyrimidine-2,4-diamine] |

Same assay, conditions: human primary T cells stimulated with anti-CD3 + anti-CD28, 24 hours

| IC50 | SMILES |
| --- | --- |
| 500 to 1000 nM | CCCc1nnnn1-c1cc(Nc2ncc(C(N)=O)c(NC3CC(C)(C)N(C)C(C)(C)C3)n2)ccc1OC [Compound I-75, 5-aminocarbonyl-N2-[4-methoxy-3-(5-propyl-1H-tetrazol-1-yl)]phenyl-N4-(1,2,2,6,6-pentamethylpiperidin-4-yl)-2,4-pyrimidinediamine] |
| 250 to 500 nM | Cc1ccc(C)n1-c1cc(Nc2ncc(F)c(NC3CC(C)(C)N(C)C(C)(C)C3)n2)ccc1C#N [Compound I-102, N2-[4-Cyano-3-(2,5-dimethyl-pyrrol-1-yl)]phenyl-5-fluoro-N4-(1,2,2,6,6-pentamethylpiperidin-4-yl)-2,4-pyrimidinediamine] |
| < 250 nM | CN1C(C)(C)CC(Nc2nc(Nc3cccc(-n4nnnc4SCC(F)(F)F)c3)ncc2C#N)CC1(C)C [Compound I-78, 5-cyano-N4-(1,2,2,6,6-pentamethylpiperidin-4-yl)-N2-{3-[5-(2,2,2-trifluoroethyl)thio]-1H-tetrazol-1-yl}phenyl-2,4-pyrimidinediamine] |
